Assay [1] has as its target T1, acetylcholinesterase (AChE) (Homo sapiens, UniProt P22303).
T1 construct: purchased Sigma-Aldrich (Steinheim, Germany)
Nature of the assay: biochemical. The note with it: for inhibition at 10 µg/mL: read-out: Inhibition (%) AChE. On the procedure: (§1) Details of all biological activity and molecular modeling studies are given as supplementary material. The enzyme activities of the extracts were studied by observing urease, tyrosinase acetyl- and butyryl-cholinesterase inhibition activities ([22]-[25]). The ligands were then applied with partial atomic charges derived by ﬁtting Antechamber obtained by electronic structure calculation module in AMBER and assigned the AM1-BCC charges ([26]-[29]).
(§2) All compounds were assayed in-vitro against AChE and BChE at 100-0.1 µg/mL.

The target in assay [2] is T2, butyrylcholinesterase (BChE) (Homo sapiens, UniProt P06276).
T2 construct: purchased Sigma-Aldrich (Steinheim, Germany)
T2 sequence (P06276 29-602): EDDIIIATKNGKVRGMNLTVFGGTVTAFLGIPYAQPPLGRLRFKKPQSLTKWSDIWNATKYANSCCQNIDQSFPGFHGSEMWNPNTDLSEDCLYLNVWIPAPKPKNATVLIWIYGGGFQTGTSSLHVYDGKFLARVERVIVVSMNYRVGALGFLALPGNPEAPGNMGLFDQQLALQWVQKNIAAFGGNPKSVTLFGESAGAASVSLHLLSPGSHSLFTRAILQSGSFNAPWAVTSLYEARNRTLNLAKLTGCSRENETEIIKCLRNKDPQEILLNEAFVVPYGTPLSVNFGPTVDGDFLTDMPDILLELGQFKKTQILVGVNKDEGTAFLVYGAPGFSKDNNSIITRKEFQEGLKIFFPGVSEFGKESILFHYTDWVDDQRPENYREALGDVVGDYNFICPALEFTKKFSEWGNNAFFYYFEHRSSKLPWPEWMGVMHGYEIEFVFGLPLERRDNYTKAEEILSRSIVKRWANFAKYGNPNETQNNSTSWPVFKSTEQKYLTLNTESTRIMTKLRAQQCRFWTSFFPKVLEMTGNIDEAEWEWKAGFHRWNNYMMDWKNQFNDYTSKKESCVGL
Nature of the assay: Butyrylcholinesterase inhibition in vitro. In kind it is biochemical. The note with it: for inhibition at 10 µg/mL: read-out: Inhibition (%) BChE; for IC50: assayed at 100-0.1 µg/mL, mean ± S.D. The procedure: as §1, §2

Assay [3] deals with tyrosinase. Nature of the assay: Tyrosinase inhibition in vitro. In kind it is biochemical, mushroom. The note with it: N.A. = not active; for Inhibition (%) Tyrosinase: 10µg/mL, mean ± S.D. of three measurements; for Equivalent Tyrosinase (µg kojic acid activity/mg compound): mean ± S.D.
Description: as §1

The target of assay [4] is T3, urease (Canavalia ensiformis, UniProt P07374).
T3 construct: purchased Sigma (Germany) Type III, powder, 15,000-50,000 units/g solid
T3 sequence (P07374 whole entry, looked up): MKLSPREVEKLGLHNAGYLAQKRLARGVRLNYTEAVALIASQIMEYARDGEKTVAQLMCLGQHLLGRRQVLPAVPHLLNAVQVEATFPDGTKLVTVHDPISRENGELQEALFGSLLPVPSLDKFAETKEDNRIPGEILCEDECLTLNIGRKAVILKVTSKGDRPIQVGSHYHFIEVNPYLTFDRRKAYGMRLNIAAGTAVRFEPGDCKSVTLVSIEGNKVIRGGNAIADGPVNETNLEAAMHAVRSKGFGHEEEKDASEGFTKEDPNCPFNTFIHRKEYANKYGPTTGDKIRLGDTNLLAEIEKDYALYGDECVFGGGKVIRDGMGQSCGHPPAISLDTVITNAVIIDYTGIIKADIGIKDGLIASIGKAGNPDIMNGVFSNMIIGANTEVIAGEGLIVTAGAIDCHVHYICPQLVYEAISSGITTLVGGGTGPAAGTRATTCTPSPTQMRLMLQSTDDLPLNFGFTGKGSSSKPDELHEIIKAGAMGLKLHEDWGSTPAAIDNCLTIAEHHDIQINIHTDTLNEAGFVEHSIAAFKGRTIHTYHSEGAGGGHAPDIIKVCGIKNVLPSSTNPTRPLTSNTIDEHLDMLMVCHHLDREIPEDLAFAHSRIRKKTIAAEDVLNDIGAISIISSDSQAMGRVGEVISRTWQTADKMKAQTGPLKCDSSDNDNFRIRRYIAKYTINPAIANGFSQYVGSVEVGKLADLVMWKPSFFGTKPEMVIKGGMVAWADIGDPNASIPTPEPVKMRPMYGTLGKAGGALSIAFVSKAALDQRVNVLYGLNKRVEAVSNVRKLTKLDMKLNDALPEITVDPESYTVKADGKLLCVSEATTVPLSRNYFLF
As to the kind of experiment: biochemical. Further details: species or system Canavalia ensiformis (Jack bean). As to conditions: N.A. = not active; for Equivalent Urease (µg thiourea activity/mg compound): mean ± S.D.; for inhibition at 10 µg/mL: read-out: Inhibition (%) Urease, 10µg/mL; for inhibition at 10 µg/mL / Inhibition (%) Urease: mean ± S.D. of three measurements; for Inhibition (%) Urease: 10µg/mL.
Description: as §1

The subject of assay [5] is BChE. More on the design: method as in Senol et al (2017). The note with it: ref Senol et al (2017); cited from earlier work.
Assay [6] relates to BChE. Further details: method as in Ramirez et al. ([39]). As to conditions: ref Ramirez et al. ([39]); read-out: IC50 against BChE; cited from earlier work.
[7] abbreviates: 10µg/mL, mean ± S.D. of three measurements, N.A. = not active.
The mark [8] stands for this setting: assayed at 100-0.1 µg/mL, mean ± S.D., N.A. = not active, read-out: IC50 AChE (converted).
The mark [9] stands for this setting: read-out: IC50 BChE (converted).

≈ marks a conversion by molar mass, not a printed value. Where “and” joins values, the source holds several entries; their conditions need not be identical. Identical values can stand only once. Counter-ions that a name gives are not always drawn. Like-named read-outs stand apart in the source and are kept apart here.

T1 sequence (P22303 32-614, species assumed): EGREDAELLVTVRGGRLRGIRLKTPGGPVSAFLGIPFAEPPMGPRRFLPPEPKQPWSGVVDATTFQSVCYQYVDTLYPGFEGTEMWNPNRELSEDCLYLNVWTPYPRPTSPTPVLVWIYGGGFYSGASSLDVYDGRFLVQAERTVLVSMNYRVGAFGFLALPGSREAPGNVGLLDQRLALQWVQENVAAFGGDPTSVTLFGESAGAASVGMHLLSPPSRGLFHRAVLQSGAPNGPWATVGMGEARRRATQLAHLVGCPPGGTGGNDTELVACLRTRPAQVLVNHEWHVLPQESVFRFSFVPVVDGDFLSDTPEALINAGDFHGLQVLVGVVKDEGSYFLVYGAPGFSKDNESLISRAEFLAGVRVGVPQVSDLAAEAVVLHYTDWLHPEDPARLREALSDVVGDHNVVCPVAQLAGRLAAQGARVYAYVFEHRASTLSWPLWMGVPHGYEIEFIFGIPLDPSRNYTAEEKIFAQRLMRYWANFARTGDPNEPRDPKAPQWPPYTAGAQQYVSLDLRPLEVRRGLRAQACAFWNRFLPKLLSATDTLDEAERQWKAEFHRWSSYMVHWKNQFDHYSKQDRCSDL

The term IC50 denotes the point on the concentration scale where inhibition reaches its midpoint. Take `COc1ccc(-c2cc(=O)c3c(O)c(OC)c(OC)cc3o2)cc1` [Compound 2, Salvigenin]: the inhibition at 10 µg/mL in assay [1] (setting [7]) was determined as 22.72 ± 0.14%; in assay [2] (setting [7]), 43.13 ± 0.21%. In addition, the IC50 is > 305 µM in assay [1] (setting [8]) and 34.9 µM in assay [2] (setting [9]).

In assay [2] (IC50 BChE), `O=C(O)C(O)Cc1ccc(O)c(O)c1` (stereo not drawn) [Compound 11, Danshensu Salt] gave an IC50 of 122 µM. Also, the inhibition at 10 µg/mL in assay [2] turned out to be 35.37 ± 0.13%. Moreover, in assay [3], the “Inhibition (%) Tyrosinase” value was determined as 6.20±0.08% and the “Equivalent Tyrosinase (µg kojic acid activity/mg compound)” value (“Equivalent Tyrosinase” below) is on record as 48.67±0.23 µg kojic acid activity/mg compound.

In the case of `COc1ccc2c3c1O[C@H]1C[C@@H](O)C=C[C@@]31CCN(C)C2` [Galanthamine, galanthamine hydrobromide, reference compound], the inhibition at 10 µg/mL in assay [2] was found to be 67.52 ± 0.41%.

Take `Cc1coc2c1C(=O)C(=O)c1c-2ccc2c(C)cccc12` [Compound 7, Tanshinone I]: the IC50 in assay [1] was 138 µM; in assay [2] (IC50 BChE), 100 µM. Besides, the inhibition at 10 µg/mL in assay [1] came to 31.3 ± 0.72%; in assay [2], 33 ± 0.86%; in assay [4], 42.4 ± 0.85%. Also, the “Equivalent Urease (µg thiourea activity/mg compound)” value (“Equivalent Urease” for short) in assay [4] was 174.73±0.19 µg thiourea activity/mg compou. Further, the “Inhibition (%) Tyrosinase” value in assay [3] was determined as 39.82±1.16%. Further, the “Equivalent Tyrosinase” value in assay [3] is 372.86±2.47 µg kojic acid activity/mg compound.

Take `CC(C)c1cc2c(c(O)c1O)[C@@]1(C(=O)O)CCCC(C)(C)[C@@H]1CC2` [Compound 8, Carnosic Acid]: the inhibition at 10 µg/mL in assay [1] (setting [7]) amounted to 38 ± 0.96%; in assay [2], 58.5 ± 1.18%; in assay [4], 22.42 ± 0.15%. Moreover, the IC50 was 95.7 µM in assay [1] (setting [8]) and 12.4 µM in assay [2] (IC50 BChE). Further, the “Equivalent Urease” value in assay [4] is reported as 62.12±0.07 µg thiourea activity/mg compou. In addition, in assay [3], the “Inhibition (%) Tyrosinase” value was found to be 5.92±0.06%. Also, the “Equivalent Tyrosinase” value in assay [3] was 45.93±0.71 µg kojic acid activity/mg compound.

Regarding `O=c1cc(CO)occ1O` [Kojic acid, reference compound], the “Inhibition (%) Tyrosinase” value in assay [3] was determined as 69.07±0.38%.

With `Cc1cccc2c3c(ccc12)C1=C(C(=O)C3=O)[C@@H](C)CO1` [Compound 6, Dihydrotanshinone I], the half-maximal inhibitory concentration (IC50) in assay [1] was 5.39 µM; in assay [2] (IC50 BChE), 1.8 µM. Also, the inhibition at 10 µg/mL came to 64.54 ± 0.36% in assay [1] and 87.19 ± 0.23% in assay [2]. In addition, the “IC50 value (BChE)” value in assay [5] is reported as 1.71 µg/mL (≈ 6.14 µM).

`Cc1coc2c1C(=O)C(=O)c1c-2ccc2c1CCCC2(C)C` [Compound 5, Tanshinone IIA]: the IC50 in assay [1] (setting [8]) was > 340 µM; in assay [2] (setting [9]), 3.8 µM. For the same compound, the inhibition at 10 µg/mL in assay [1] worked out at 32.3 ± 0.44%; in assay [2] it was 66.3 ± 1.18%; in assay [4], 14.3 ± 0.42%. Also, the “Equivalent Urease” value in assay [4] was 16.12±0.01 µg thiourea activity/mg compou.

Turning to `CC(C)c1cc2c(c(O)c1O)[C@@]13CCCC(C)(C)[C@@H]1C[C@@H]2OC3=O` [Compound 9, Carnosol], the results for the inhibition at 10 µg/mL in assay [1] (setting [7]), in assay [2] (setting [7]) and in assay [4] were 47.6 ± 23%, 57.99 ± 0.15% and 16.1 ± 0.42%, respectively. The IC50 was 33.7 µM in assay [1] (setting [8]); 11.9 µM and 12.5 µM in assay [2] (setting [9]); 5.1 µM in assay [6]. The “Equivalent Urease” value in assay [4] was 26.60±0.03 µg thiourea activity/mg compou.

As for `COc1cc2c(cc1OC)C(=O)C(CC1CCN(Cc3ccccc3)CC1)C2` (stereo not drawn) [donezepil, reference compound], in assay [6], the IC50 is […].

As for `NC(N)=S` [Thiourea, thiourea, reference compound], in assay [4], the “Inhibition (%) Urease” value is given as 75.14±1.34%.

As to `O=C(/C=C/c1ccc(O)c2c1[C@H](C(=O)O[C@H](Cc1ccc(O)c(O)c1)C(=O)O)[C@@H](c1ccc(O)c(O)c1)O2)O[C@H](Cc1ccc(O)c(O)c1)C(=O)O` [Compound 3, Salvianolic acid B], the results for the IC50 in assay [1] and in assay [2] (IC50 BChE) were > 139 µM and 14.6 µM, respectively. The inhibition at 10 µg/mL in assay [1] (setting [7]) came out at 10.11 ± 0.08%; in assay [2] (setting [7]), 49.83 ± 0.27%; in assay [4] it was 49.83 ± 0.27%. Besides, the “Inhibition (%) Urease” value in assay [4] amounted to 45.52±0.68%. For the same compound, the “Equivalent Urease” value in assay [4] is 192.26±0.21 µg thiourea activity/mg compou.

As to `O=C(/C=C/c1ccc(O)c(O)c1)O[C@H](Cc1ccc(O)c(O)c1)C(=O)O` [Compound 1, Rosmarinic acid], the results for the inhibition at 10 µg/mL in assay [1] (setting [7]) and in assay [2] were 20.2 ± 0.21% and 42.76 ± 0.32%, respectively. Besides, the IC50 is > 278 µM in assay [1] (setting [8]) and 35.4 µM in assay [2] (IC50 BChE). For the same compound, the “Inhibition (%) Tyrosinase” value in assay [3] is given as 12.11±0.02%. Besides, the “Equivalent Tyrosinase” value in assay [3] is reported as 105.58±0.18 µg kojic acid activity/mg compound.

As for `O=C(/C=C/c1ccc(O)c(O)c1/C=C/c1ccc(O)c(O)c1)O[C@H](Cc1ccc(O)c(O)c1)C(=O)O` [Compound 4, Salvianolic acid A], the IC50 in assay [1] is 46.6 µM; in assay [2] (IC50 BChE), 97.7 µM. Besides, the inhibition at 10 µg/mL in assay [1] (setting [7]) was 38.82 ± 0.12%; in assay [2] (setting [7]), 27.49 ± 0.08%.

As for `C[C@H]1COC2=C1C(=O)C(=O)c1c2ccc2c1CCCC2(C)C` [Compound 10, Cryptotanshinone], the IC50 in assay [1] is > 337 µM; in assay [2] (IC50 BChE) it was 95.9 µM. The values for the inhibition at 10 µg/mL in assay [1], in assay [2] and in assay [4] were 17.46 ± 0.11%, 35.16 ± 0.27% and 29.7 ± 1.16%, respectively. The “Equivalent Urease” value in assay [4] is listed as 103.05±0.11 µg thiourea activity/mg compou.
